Test results published in ChEMBL document CHEMBL1201862, “PubChem BioAssay data set” (2004).
Active and inactive are the calls of the source.

Experiments:
Estrogen receptor = target: T1, Estrogen receptor (Homo sapiens, UniProt P03372); experiment: ERα coactivator recruitment enhancers – biochemical, TR-FRET, ERα LBD, dose response (AID 737)
T1 sequence (P03372 whole entry): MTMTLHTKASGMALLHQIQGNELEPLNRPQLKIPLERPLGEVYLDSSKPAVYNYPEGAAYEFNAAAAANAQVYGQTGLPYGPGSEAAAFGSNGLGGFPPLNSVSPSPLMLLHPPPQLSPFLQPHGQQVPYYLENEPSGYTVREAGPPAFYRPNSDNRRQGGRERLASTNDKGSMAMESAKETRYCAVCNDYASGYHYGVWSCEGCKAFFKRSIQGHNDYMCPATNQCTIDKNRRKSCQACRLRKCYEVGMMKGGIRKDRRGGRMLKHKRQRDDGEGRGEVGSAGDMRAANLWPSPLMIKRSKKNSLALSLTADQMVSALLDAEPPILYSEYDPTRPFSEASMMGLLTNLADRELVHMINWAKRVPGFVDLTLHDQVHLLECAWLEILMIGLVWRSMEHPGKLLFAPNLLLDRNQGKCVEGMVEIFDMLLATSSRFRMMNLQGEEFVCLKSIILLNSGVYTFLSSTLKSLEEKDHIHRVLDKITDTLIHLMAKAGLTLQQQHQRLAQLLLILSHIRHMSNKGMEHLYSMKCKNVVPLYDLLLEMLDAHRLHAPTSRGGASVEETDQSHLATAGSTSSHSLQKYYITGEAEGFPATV

Cytochrome P450 3A4 = Cytochrome P450 3A4 (Homo sapiens, UniProt P08684); conditions: Potency;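 further: confirmatory qHTS run detecting inhibitors and substrates of CYP3A4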
Cytochrome P450 2D6 = Cytochrome P450 2D6 (Homo sapiens, UniProt P10635); experiment: qHTS Assay for Inhibitors and Substrates of Cytochrome P450 2D6. [Related pubchem assays: 410 ]; type: ADME; conditions: read-out: Potency
HEK293 = experiment: Fluorescence-based counterscreen for potentiators or agonists of NPY-Y1: cell-based high-throughput dose response assay for inhibitors of cyclic nucleotide gated ion channel (CNGC) activity. In this assay, the parental HEK293 cell line transfected with a cyclic-nucleotide gated ion channel (CNGC)-based cAMP sensor is used to measure inhibition of isoproterenol-induced CNGC …; type: functional; conditions: Homo sapiens
[1] = target: T2, Neuropeptide Y receptor type 2 (Homo sapiens, UniProt P49146); experiment: Fluorescence-based counterscreen for agonists of NPY-Y1: cell-based high-throughput dose response assay for agonists of NPY-Y2.; type: functional
T2 sequence (P49146 whole entry): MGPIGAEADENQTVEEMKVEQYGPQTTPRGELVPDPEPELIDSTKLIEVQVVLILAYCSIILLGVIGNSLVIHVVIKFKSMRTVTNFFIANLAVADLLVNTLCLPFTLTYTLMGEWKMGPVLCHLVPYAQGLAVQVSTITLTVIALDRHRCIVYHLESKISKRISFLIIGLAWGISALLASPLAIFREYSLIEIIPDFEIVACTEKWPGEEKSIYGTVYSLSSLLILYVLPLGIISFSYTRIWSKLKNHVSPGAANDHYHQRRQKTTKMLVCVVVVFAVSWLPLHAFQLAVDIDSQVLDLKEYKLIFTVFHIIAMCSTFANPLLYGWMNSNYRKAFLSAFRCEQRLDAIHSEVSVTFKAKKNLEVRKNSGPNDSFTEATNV

[2] = target: T3, Neuropeptide Y receptor type 1 (Homo sapiens, UniProt P25929); experiment: Fluorescence-based dose response cell-based high-throughput screening assay for agonists of NPY-Y1. [Related pubchem assays: 1697 (Screening assay (NPY-Y1 agonists).), 1359 (Screening assay (NPY-Y2 potentiators or agonists).), 1304 (Screening assay (NPY-Y1 potentiators or agonists).), 1704 (Screening assay (CNGC inhibitors).), 1791 (Summary AID.)]; type: functional
T3 sequence (P25929 whole entry): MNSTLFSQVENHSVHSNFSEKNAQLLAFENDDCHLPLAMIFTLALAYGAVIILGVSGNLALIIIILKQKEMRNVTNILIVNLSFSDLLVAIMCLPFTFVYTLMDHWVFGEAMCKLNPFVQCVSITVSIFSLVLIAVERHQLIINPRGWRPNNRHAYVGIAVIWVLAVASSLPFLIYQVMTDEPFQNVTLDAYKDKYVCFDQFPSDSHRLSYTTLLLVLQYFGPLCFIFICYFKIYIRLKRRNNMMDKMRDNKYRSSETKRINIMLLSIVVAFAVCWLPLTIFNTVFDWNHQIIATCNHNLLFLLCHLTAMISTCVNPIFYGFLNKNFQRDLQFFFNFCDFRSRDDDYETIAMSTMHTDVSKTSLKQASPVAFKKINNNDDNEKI

[3] = mitochondrial function rescue without frataxin homolog – Friedreich's ataxia, plus single-dose screen, dose response (AID 1465); type: functional;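 further: yeast depleted of Yfh1p frataxin homolog grown on glycerol needing respiration; WST-1 tetrazolium dye reduction as measure of cellular dehydrogenase metabolic activity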
Nonstructural protein 1 = Nonstructural protein 1 (Influenza A virus, UniProt Q194T2); type: functional, Influenza A virus (A/California/07/2009(H1N1))
cells [4] = type: functional, cell-based
cells [5] = type: functional, cell-based; remark: listed apart in the source
Estrogen receptor beta [6] = target: T4, Estrogen receptor beta (Homo sapiens, UniProt Q92731); experiment: blockers of SRC-3 recruitment to ERβ – biochemical, ELISA, streptavidin-HRP readout, orthogonal assay, confirmation (AID 1060)
Leucine aminopeptidase = target: T5, Leucine aminopeptidase (Plasmodium falciparum 3D7, UniProt Q8IL11); experiment: P. falciparum M17LAP inhibitors, primary screen, biochemical, fluorogenic H-Leu-NHMec substrate, 1536-well (AID 1619); type: functional
T5 sequence (Q8IL11 whole entry): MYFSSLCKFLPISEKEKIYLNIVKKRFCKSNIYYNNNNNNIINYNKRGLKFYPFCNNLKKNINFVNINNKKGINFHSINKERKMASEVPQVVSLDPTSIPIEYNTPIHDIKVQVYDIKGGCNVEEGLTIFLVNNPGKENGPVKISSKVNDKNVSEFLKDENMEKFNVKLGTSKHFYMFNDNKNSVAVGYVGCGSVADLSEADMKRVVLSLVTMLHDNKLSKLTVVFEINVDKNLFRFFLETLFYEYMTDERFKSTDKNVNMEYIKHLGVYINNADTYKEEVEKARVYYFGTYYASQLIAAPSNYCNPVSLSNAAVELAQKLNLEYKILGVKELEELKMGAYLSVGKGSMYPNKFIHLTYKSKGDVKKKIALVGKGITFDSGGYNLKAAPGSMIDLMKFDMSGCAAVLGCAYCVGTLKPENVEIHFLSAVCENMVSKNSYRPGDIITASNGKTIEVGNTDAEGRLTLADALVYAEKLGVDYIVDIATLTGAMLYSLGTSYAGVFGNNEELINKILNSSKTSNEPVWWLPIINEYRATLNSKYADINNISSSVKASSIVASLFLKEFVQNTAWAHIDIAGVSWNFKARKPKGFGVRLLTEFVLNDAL

Large T antigen = Large T antigen (Simian virus 40, UniProt P03070); type: functional, Betapolyomavirus macacae;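 further: Confirmatory-stage PubChem screen for compounds that inhibit SV40 T antigen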
Estrogen receptor beta [7] = target: T4, Estrogen receptor beta
Procathepsin L = Procathepsin L (Homo sapiens, UniProt P07711)
[8] = target: T6, Zinc finger protein mex-5 (Caenorhabditis elegans, UniProt Q9XUB2); experiment: potency of MEX-5 RNA-binding blockers – biochemical, C. elegans, fluorescence polarization, dose response (AID 1960)
T6 sequence (Q9XUB2 whole entry): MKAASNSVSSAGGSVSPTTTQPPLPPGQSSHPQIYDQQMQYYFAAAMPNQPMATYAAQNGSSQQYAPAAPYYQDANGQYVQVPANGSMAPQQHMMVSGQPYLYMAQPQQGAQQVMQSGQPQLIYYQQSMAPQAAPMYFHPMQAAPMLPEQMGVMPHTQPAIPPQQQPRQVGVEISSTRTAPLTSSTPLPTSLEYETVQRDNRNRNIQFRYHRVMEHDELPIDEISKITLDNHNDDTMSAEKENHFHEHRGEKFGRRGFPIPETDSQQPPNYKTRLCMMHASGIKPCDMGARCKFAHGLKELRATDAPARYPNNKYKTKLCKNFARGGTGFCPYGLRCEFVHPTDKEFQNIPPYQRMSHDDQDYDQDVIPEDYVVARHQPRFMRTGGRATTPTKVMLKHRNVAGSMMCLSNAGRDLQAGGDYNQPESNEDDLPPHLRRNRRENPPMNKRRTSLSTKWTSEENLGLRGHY

[9] = target: T7, RNA-binding protein pos-1 (Caenorhabditis elegans, UniProt G5EF15); experiment: disruptors of C. elegans POS-1 RNA interaction – biochemical, fluorescence polarization, dose response (AID 1964);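 further: purified POS-1 fused to maltose binding protein made in E. coli; potency of compounds blocking POS-1 binding to fluorescent RNA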
T7 sequence (G5EF15 whole entry): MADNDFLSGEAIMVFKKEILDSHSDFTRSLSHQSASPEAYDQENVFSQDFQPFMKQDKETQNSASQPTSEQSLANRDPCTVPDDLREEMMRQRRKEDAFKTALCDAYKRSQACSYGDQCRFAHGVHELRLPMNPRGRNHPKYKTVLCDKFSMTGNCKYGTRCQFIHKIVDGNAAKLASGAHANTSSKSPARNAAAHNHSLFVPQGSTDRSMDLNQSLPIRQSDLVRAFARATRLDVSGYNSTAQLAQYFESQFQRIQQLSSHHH

Aspartyl aminopeptidase = Aspartyl aminopeptidase (Plasmodium falciparum 3D7, UniProt Q8I2J3)
Aspartyl aminopeptidase, sequence (Q8I2J3 whole entry): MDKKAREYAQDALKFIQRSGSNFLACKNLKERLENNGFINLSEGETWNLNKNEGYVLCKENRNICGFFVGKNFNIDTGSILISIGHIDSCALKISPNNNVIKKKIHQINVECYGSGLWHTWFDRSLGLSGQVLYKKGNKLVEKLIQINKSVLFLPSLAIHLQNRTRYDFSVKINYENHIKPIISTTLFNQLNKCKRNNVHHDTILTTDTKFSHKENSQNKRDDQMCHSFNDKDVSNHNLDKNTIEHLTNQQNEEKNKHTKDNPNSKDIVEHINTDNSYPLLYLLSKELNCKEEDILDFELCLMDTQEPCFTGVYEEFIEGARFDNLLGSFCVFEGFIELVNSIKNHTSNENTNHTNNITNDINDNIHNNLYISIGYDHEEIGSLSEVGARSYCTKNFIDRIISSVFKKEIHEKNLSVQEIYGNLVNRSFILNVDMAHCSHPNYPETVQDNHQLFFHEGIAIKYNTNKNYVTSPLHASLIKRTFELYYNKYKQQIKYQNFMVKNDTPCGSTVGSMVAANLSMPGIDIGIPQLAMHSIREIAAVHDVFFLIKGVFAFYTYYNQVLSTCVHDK

T4 sequence (Q92731 whole entry): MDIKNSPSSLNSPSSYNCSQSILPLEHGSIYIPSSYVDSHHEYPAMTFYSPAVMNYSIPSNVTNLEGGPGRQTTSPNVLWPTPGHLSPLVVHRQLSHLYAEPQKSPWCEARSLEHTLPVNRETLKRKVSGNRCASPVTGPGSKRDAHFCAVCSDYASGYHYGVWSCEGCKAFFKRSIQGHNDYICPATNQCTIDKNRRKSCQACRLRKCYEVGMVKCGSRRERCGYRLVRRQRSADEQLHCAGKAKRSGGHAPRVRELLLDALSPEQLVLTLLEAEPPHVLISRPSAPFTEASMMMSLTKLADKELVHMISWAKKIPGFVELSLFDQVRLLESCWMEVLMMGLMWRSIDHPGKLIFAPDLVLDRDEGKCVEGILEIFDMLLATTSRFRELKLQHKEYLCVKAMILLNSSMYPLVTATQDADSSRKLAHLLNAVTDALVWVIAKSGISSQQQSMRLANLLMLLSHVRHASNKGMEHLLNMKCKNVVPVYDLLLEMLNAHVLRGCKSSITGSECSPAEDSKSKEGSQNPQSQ
Nonstructural protein 1, sequence (Q194T2 whole entry): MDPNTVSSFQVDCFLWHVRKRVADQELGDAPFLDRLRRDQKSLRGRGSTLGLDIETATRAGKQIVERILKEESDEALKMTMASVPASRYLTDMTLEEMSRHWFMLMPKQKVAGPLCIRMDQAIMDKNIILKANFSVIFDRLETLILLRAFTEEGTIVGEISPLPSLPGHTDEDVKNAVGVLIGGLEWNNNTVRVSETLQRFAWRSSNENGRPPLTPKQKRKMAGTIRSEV
Cytochrome P450 2D6, sequence (P10635 whole entry): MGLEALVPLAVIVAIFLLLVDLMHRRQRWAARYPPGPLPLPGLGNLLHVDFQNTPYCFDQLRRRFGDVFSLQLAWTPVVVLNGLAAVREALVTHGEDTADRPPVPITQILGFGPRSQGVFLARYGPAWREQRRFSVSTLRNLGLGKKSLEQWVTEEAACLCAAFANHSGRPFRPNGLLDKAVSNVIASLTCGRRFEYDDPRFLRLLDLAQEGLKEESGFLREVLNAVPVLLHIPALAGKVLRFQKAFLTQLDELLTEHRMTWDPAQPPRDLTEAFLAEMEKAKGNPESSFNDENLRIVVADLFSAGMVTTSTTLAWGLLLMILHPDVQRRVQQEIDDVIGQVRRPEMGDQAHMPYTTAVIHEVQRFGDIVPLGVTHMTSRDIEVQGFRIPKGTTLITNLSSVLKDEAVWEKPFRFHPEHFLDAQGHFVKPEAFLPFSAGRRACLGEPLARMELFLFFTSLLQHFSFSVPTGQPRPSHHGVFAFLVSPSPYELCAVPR
Cytochrome P450 3A4, sequence (P08684 whole entry): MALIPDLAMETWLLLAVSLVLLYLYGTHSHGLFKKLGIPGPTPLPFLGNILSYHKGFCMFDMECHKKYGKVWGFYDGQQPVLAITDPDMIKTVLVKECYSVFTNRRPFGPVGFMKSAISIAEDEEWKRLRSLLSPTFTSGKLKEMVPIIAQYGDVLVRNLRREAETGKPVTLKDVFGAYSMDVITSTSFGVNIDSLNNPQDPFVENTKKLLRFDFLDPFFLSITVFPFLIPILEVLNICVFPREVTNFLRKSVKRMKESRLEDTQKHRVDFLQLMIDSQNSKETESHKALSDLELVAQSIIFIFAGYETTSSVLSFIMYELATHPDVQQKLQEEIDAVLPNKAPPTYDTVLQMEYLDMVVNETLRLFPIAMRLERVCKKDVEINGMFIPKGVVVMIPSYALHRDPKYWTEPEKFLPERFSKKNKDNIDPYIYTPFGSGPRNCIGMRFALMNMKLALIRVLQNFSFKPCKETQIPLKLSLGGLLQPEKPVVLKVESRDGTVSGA
Large T antigen, sequence (P03070 whole entry): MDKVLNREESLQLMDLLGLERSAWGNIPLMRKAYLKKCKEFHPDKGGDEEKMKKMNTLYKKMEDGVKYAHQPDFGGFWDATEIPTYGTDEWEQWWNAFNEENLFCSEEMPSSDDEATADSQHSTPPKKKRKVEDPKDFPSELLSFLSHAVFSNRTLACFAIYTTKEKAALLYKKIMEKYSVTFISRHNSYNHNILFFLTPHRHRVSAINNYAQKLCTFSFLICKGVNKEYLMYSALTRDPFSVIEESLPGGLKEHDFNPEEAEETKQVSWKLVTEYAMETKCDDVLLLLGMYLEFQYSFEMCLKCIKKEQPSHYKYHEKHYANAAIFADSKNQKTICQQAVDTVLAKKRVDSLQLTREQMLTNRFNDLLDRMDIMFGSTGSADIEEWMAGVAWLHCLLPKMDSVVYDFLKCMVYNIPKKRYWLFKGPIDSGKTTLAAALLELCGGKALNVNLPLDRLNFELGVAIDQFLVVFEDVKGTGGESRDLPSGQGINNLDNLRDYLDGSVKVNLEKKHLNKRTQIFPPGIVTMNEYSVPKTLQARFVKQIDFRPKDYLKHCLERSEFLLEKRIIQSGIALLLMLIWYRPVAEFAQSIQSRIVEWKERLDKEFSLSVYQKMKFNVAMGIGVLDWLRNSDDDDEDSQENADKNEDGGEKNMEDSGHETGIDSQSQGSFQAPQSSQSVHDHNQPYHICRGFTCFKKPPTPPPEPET
Procathepsin L, sequence (P07711 whole entry): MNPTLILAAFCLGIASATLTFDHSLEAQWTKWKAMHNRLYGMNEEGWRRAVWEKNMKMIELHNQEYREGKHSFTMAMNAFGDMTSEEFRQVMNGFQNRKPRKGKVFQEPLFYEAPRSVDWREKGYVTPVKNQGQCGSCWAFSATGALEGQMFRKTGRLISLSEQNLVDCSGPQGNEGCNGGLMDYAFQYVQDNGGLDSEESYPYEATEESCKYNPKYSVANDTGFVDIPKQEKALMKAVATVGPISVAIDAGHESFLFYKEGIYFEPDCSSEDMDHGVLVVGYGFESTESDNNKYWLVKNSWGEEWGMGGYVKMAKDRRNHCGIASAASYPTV

For `CSc1nnc2c(n1)OC(c1ccsc1)N(C(C)=O)c1ccccc1-2` (stereo not drawn), the EC50 (Estrogen receptor) was 22.6 µM (not active).
With `C=CCOCC/C=C1/c2ccccc2C(OC)C1C` (stereo not drawn) the AC50 (Cytochrome P450 3A4) was 3.16 µM (inconclusive) and the AC50 (Cytochrome P450 2D6) was 3.16 µM (inconclusive).
With `COc1ccc(-n2nc3ccc(NS(C)(=O)=O)cc3n2)cc1Cl` the IC50 (HEK293) was > 35.4 µM (not active), the EC50 [1] was > 35.4 µM (not active) and the EC50 [2] was > 35.4 µM (not active).
For `COc1ccc(O)c(/C=N/NC(=S)Nc2cccc(S(=O)(=O)N(C)C)c2)c1`, the EC50 [3] was > 100 µM (active), the IC50 (Nonstructural protein 1) was 8.98 µM (active) and the EC50 (cells [4]) was 10.8 µM (active). The EC50 (cells [5]) was > 350 µM (not active).
For `Cc1nc(-c2ccc(O)c(O)c2)cs1`, the IC50 (Estrogen receptor beta [6]) was 87.3 µM (not active), the IC50 (Leucine aminopeptidase) was 25.1 µM (active) and the IC50 (Large T antigen) was 6.46 µM (active). For the same compound, the IC50 (Estrogen receptor beta [7]) was 10.2 µM (active), the IC50 (Procathepsin L) was > 59.6 µM (not active) and the EC50 [8] was 21.3 µM (active). For the same compound, the EC50 [9] was 36.6 µM (active) and the IC50 (Aspartyl aminopeptidase) was 1.3 µM (active).
